Consider 31 compounds from patent US20120077802A1 (SUNOVION PHARMACEUTICALS INC., priority 2009, published 2012).

Read-outs that look alike come from different tables or passages of the source.

This assay deals with T1, human histamine H3 receptor (Homo sapiens, UniProt Q9Y5N1).
T1 construct: host or cells: cells expressing the human H3 receptor
The experiment in a line: H3 GTPγS assay (SPA method), histamine H3 in vitro assay. In kind it is biochemical. As for the experimental part:
H3 GTPγS assay (SPA method) was performed at EuroScreen (Belgium, ES-392-C) using conventional methods. Briefly, cells expressing the human histamine H3 receptor were homogenized in 15 mM Tris-HCl pH 7.5, 2 mM MgCl2, 0.3 mM EDTA, and 1 mM EGTA. Membranes were washed twice in the above tris buffer, collected by centrifugation (40,000×g, 25 min), and re-suspended in 75 mM Tris-HCl pH 7.5, 12.5 mM MgCl2, 0.3 mM EDTA, 1 mM EGTA, and 250 mM sucrose. Membranes were frozen in liquid nitrogen until use. On the day of the assay, membranes were thawed and diluted in assay buffer (20 mM HEPES pH 7.4, 100 mM NaCl, 10 μg/ml saponin, 1 mM MgCl2) to give 500 μg/ml and mixed (v/v) with GDP in assay buffer for a final GDP concentration of 10 μM and incubated on ice for at least 15 min. PVT-WGA beads (Amersham, RPNQ001) were diluted in assay buffer at 50 mg/mL and mixed with GTPγ[^35S] (Amersham, SJ1308) diluted in assay buffer to give ˜25,000 dpm/10 μL, and mixed vol/vol just before the start of the reaction. The reaction was started by adding 50 μL of test compound, 20 μL of the membranes:GDP mix, 10 μL of buffer, and 20 μL of the GTPγ[^35S]:beads mix in a 96 well plate Optiplate™ (PerkinElmer, 6005299) covered with topseal (TopCount™, PerkinElmer), mixed with an orbital shaker for 2 min, incubated for 1 hour at room temperature, centrifuged for 10 min at 2000 rpm, incubated for 1 h at room temperature, and counted for 1 min in a TopCount™ reader (PerkinElmer). Dose response curves and IC50 values (concentration to inhibit the reaction by 50%) were calculated by nonlinear regression using XLfit software (IDBS).
For antagonists testing, 10 μL of a reference agonist (R-γ-Me-Histamine) instead of 10 μL buffer was added at a concentration corresponding to the EC80 (30 nM). Control ligands were R-γ-Me-Histamine (Tocris, 0569), Imetit (Sigma, I-135), Thioperamide (Tocris, 0644), and Clobenpropit (Tocris, 0754) diluted in assay buffer.
The compounds provided herein were tested in the histamine H3 in vitro assay. In one embodiment, the respective HCl salts of the compounds provided herein were prepared using standard chemical procedures and tested in the histamine H3 in vitro assay.

[1] abbreviates: GTPγ[35S] SPA, membranes of cells expressing human H3 receptor, in one embodiment HCl salts tested, read-out: Potency (functional potency as indicated by IC50).

One may read the IC50 as the concentration that gives 50% inhibition.

T1 sequence (Q9Y5N1 whole entry): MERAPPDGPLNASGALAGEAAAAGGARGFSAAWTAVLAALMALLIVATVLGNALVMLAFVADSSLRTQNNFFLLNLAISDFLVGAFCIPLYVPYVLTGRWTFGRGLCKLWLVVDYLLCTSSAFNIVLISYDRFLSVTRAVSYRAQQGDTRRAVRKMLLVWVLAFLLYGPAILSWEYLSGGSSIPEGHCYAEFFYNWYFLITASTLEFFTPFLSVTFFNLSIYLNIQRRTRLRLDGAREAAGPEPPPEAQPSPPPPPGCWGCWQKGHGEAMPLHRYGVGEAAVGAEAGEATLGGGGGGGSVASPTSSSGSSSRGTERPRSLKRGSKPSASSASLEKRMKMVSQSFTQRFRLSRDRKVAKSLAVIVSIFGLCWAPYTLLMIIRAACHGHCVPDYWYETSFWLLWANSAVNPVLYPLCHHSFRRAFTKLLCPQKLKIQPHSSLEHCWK

As to “5-((3,4-Dihydroisoquinolin-2(1H)-yl)methyl)-2′,3′,4′,6′,7′,9′,10′,10a′-octahydro-1′H,3H-spiro[benzofuran-2,8′-pyrido[1,2-a]azepine] and 5-((3,4-dihydroisoquinolin-2(1H)-yl)methyl)-2′,3′,4′,6′,7′,8′,10′,10a′-octahydro-1′H,3H-spiro[benzofuran-2,9′-pyrido[1,2-a]azepine] [88/88a]”, the IC50 under setting [1] is ≤ 100 nM.
The same measure, in the same setting: as for `c1nc2ccc(-c3ccc4c(c3)CC3(CCN(C5CCC5)CC3)O4)cn2n1` [Compound 62, 5-([1,2,4]Triazolo[1,5-a]pyridin-6-yl)-1′-cyclobutyl-3H-spiro[benzofuran-2,4′-piperidine]], the figure is ≤ 10 nM; as for `c1cc2cc(-c3ccc4c(c3)CC3(CCN(C5CCC5)CC3)O4)ccc2[nH]1` [Compound 7, 1′-Cyclobutyl-5-(1H-indol-5-yl)-3H-spiro[benzofuran-2,4′-piperidine]], ≤ 100 nM.
As to `Brc1ccc2c(c1)CC1(CCN(Cc3c[nH]cn3)CC1)O2` [Compound 26, 1′-((1H-Imidazol-4-yl)methyl)-5-bromo-3H-spiro[benzofuran-2,4′-piperidine]], under “histamine H3 in vitro assay, read-out: IC50 values”, the IC50 is > 1000 nM.
Regarding `Brc1ccc2c(c1)CC1(CCN3CCCCC3C1)O2` (single isomer, unassigned) [Compound 72, 5-Bromo-1′,3′,4′,6′,7′,8′,9′,9a′-octahydro-3H-spiro[benzofuran-2,2′-quinolizine]], the IC50 under setting [1] was ≤ 1000 nM.
As to `COc1ccnc(-c2ccc3c(c2)CC2(CCN(C4CCC4)CC2)O3)n1` [Compound 28, 1′-Cyclobutyl-5-(4-methoxypyrimidin-2-yl)-3H-spiro[benzofuran-2,4′-piperidine]], the IC50 under setting [1] is ≤ 100 nM.
`c1ccc2c(c1)ncn2-c1ccc2c(c1)OC1(CCCN(C3CCC3)CC1)C2` (stereo not shown) [Compound 70, 6′-(1H-Benzo[d]imidazol-1-yl)-1-cyclobutyl-3′H-spiro[azepane-4,2′-benzofuran]]: the IC50 under setting [1] was ≤ 10 nM.
Still for that read-out and setting: then `c1cc2ncc(-c3ccc4c(c3)CC3(CCN(C5CCC5)CC3)O4)cc2[nH]1` [Compound 59, 1′-Cyclobutyl-5-(1H-pyrrolo[3,2-b]pyridin-6-yl)-3H-spiro[benzofuran-2,4′-piperidine]], with ≤ 10 nM; and `c1ccc2c(c1)CCN(Cc1ccc3c(c1)CC1(CCN4CCCCC4C1)O3)C2` (stereo not shown) [Compound 81, 5-((3,4-Dihydroisoquinolin-2(1H)-yl)methyl)-1′,3′,4′,6′,7′,8′,9′,9a′-octahydro-3H-spiro[benzofuran-2,2′-quinolizine]], with ≤ 10 nM; and `N#Cc1ccc(-c2ccc3c(c2)CC2(CCCN4CCCCC4C2)O3)cc1` (stereo not shown) [Compound 86, 4-(2′,3′,4′,6′,7′,8′,10′,10a′-octahydro-1′H,3H-spiro[benzofuran-2,9′-pyrido[1,2-a]azepin]-5-yl)benzonitrile], with ≤ 10 nM.
Still for that read-out and setting: as for `c1cn2cc(-c3ccc4c(c3)CC3(CCN5CCCC5C3)O4)ccc2n1` (stereo not shown) [Compound 91, 5-(Imidazo[1,2-a]pyridin-6-yl)-2′,3′,5′,6′,8′,8a′-hexahydro-1′H,3H-spiro[benzofuran-2,7′-indolizine]], the figure is ≤ 10 nM; as for `N#Cc1ccc(-c2ccc3c(c2)CC2(CCN(C4CCCC4)CC2)O3)cc1` [Compound 17, 4-(1′-Cyclopentyl-3H-spiro[benzofuran-2,4′-piperidine]-5-yl)benzonitrile], ≤ 100 nM; as for `c1cc2nc(-c3ccc4c(c3)CC3(CCN(C5CCC5)CC3)O4)ccc2[nH]1` [Compound 56, 1′-Cyclobutyl-5-(1H-pyrrolo[3,2-b]pyridin-5-yl)-3H-spiro[benzofuran-2,4′-piperidine]], ≤ 10 nM.
For the compound `N#Cc1ccc(-c2ccc3c(c2)CC2(CCN(C4CCOCC4)CC2)O3)cc1` [Compound 19, 4-(1′-(Tetrahydro-2H-pyran-4-yl)-3H-spiro[benzofuran-2,4′-piperidine]-5-yl)benzonitrile], the IC50 under setting [1] is ≤ 100 nM.
Still for that read-out and setting: then `CC(C1CCC1)N1CCC2(CC1)Cc1cc(Br)ccc1O2` (stereo not shown) [Compound 25, 5-Bromo-1′-(1-cyclobutylethyl)-3H-spiro[benzofuran-2,4′-piperidine]], with ≤ 1000 nM; and `c1ccc2c(c1)ncn2-c1ccc2c(c1)CC1(CCCN(C3CCC3)CC1)O2` (stereo not shown) [Compound 50, 5′-(1H-Benzo[d]imidazol-1-yl)-1-cyclobutyl-3′H-spiro[azepane-4,2′-benzofuran]], with ≤ 10 nM; and `CC(C1CCC1)N1CCC2(CC1)Cc1cc(-c3ccc(CN)cc3)ccc1O2` (stereo not shown) [Compound 16, (4-(1′-(1-Cyclobutylethyl)-3H-spiro[benzofuran-2,4′-piperidine]-5-yl)phenyl)methanamine], with ≤ 10 nM.
Still for that read-out and setting: as for `NCc1ccc(-c2ccc3c(c2)CC2(CCN(C4CCC4)CC2)O3)cc1` [Compound 14, (4-(1′-Cyclobutyl-3H-spiro[benzofuran-2,4′-piperidine]-5-yl)phenyl)methanamine], the figure is ≤ 100 nM; as for `CC1CCCC1N1CCC2(CC1)Cc1cc(-c3ccc(C#N)cc3)ccc1O2` (stereo not shown) [Compound 18], ≤ 100 nM; as for `CN1CCC(N2CCC3(CC2)Cc2cc(-c4ccc5[nH]ccc5c4)ccc2O3)CC1` [Compound 10, 5-(1H-Indol-5-yl)-1′-(1-methylpiperidin-4-yl)-3H-spiro[benzofuran-2,4′-piperidine]], ≤ 1000 nM.
On to `Cn1ncc2ccc(-c3ccc4c(c3)CC3(CCN(C5CCC5)CC3)O4)cc21` [Compound 65, 1′-Cyclobutyl-5-(1-methyl-1H-indazol-6-yl)-3H-spiro[benzofuran-2,4′-piperidine]], for which the IC50 under setting [1] is ≤ 10 nM.
The same measure, in the same setting: then `c1cnc(-c2ccc3c(c2)CC2(CCN(C4CCC4)CC2)O3)cn1` [Compound 29, 1′-Cyclobutyl-5-(pyrazin-2-yl)-3H-spiro[benzofuran-2,4′-piperidine]], with ≤ 10 nM; and `N#Cc1ccc(-c2ccc3c(c2)CC2(CCC4CCCCN4CC2)O3)cc1` (stereo not shown) [Compound 85, 4-(2′,3′,4′,6′,7′,9′,10′,10a′-Octahydro-1′H,3H-spiro[benzofuran-2,8′-pyrido[1,2-a]azepin]-5-yl)benzonitrile], with ≤ 10 nM; and `N#Cc1ccc(-c2ccc3c(c2)OC2(CCCN(C4CCC4)CC2)C3)cc1` (stereo not shown) [Compound 68, 4-(1-Cyclobutyl-3′H-spiro[azepane-4,2′-benzofuran]-6′-yl)benzonitrile], with ≤ 100 nM.
Regarding `CN1CCC(N2CCC3(CC2)Cc2cc(Br)ccc2O3)CC1` [Compound 24, 5-Bromo-1′-(1-methylpiperidin-4-yl)-3H-spiro[benzofuran-2,4′-piperidine]], the IC50 under setting [1] is ≤ 1000 nM.
For the compound “5-((3,4-Dihydroisoquinolin-2(1H)-yl)methyl)-1′,2′,3′,5′,6′,7′,9′,9a′-octahydro-3H-spiro[benzofuran-2,8′-pyrrolo[1,2-a]azepine] and 5-((3,4-dihydroisoquinolin-2(1H)-yl)methyl)-1′,2′,3′,5′,6′,8′,9′,9a′-octahydro-3H-spiro[benzofuran-2,7′-pyrrolo[1,2-a]azepine] [97/97a]”, the half-inhibitory concentration (IC50) under setting [1] is ≤ 10 nM.
Same read-out and setting: then `N#Cc1ccc(-c2ccc3c(c2)CC2(CCN4CCCCC4C2)O3)cc1` (stereo not shown) [Compound 74, 4-(-1′,3′,4′,6′,7′,8′,9′,9a′-Octahydro-3H-spiro[benzofuran-2,2′-quinolizin]-5-yl)benzonitrile], with ≤ 10 nM; and “5-Bromo-2′,3′,4′,6′,7′,9′,10′,10a′-octahydro-1′H,3H-spiro[benzofuran-2,8′-pyrido[1,2-a]azepine] and 5-bromo-2′,3′,4′,6′,7′,8′,10′,10a′-octahydro-1′H,3H-spiro[benzofuran-2,9′-pyrido[1,2-a]azepine] [82/82a]”, with ≤ 1000 nM; and `N#Cc1ccc(NCc2ccc3c(c2)CC2(CCN(C4CCC4)CC2)O3)cc1` [Compound 42, 4-((1′-Cyclobutyl-3H-spiro[benzofuran-2,4′-piperidine]-5-yl)methylamino)benzonitrile], with ≤ 100 nM.
Still for that read-out and setting: then `N#Cc1ccc(-c2ccc3c(c2)CC2(CCCN(C4CCC4)CC2)O3)cc1` (stereo not shown) [Compound 48, 4-(1-Cyclobutyl-3′H-spiro[azepane-4,2′-benzofuran]-5′-yl)benzonitrile], with ≤ 10 nM.
The same measure, in the same setting: as for `c1cc2c(cc1N1CCCCC1)CC1(CCCN(C3CCC3)CC1)O2` (stereo not shown) [Compound 51, 1-Cyclobutyl-5′-(piperidin-1-yl)-3′H-spiro[azepane-4,2′-benzofuran]], the figure is ≤ 100 nM.
